Source: publication PMC7413254 (Nature Communications, 2020)
Where two headings read alike, the source gives them in different places.

Key:
[1] = biological target: T1, PfCRT^7G8 in C6^7G8 parasites (Plasmodium falciparum, UniProt Q8IBZ9, A220S/C72S/I351M/I356L/K76T/N326D); experiment: P. falciparum H+-efflux assay (rate of DV alkalinisation after concanamycin A); assay type: cell-based; details: C67G8; for Effect on rate of DV alkalinisation / H+ leak (in words): test solute 10 μM
T1 construct: PfCRT also functions as a peptide transporter within its native environment of the DV membrane; expressed in transfected cells; host or cells: P. falciparum pfcrt transfectant line C6^7G8 (saponin-isolated trophozoites)
T1 sequence (Q8IBZ9 1-424 C72S/K76T/A220S/N326D/I351M/I356L): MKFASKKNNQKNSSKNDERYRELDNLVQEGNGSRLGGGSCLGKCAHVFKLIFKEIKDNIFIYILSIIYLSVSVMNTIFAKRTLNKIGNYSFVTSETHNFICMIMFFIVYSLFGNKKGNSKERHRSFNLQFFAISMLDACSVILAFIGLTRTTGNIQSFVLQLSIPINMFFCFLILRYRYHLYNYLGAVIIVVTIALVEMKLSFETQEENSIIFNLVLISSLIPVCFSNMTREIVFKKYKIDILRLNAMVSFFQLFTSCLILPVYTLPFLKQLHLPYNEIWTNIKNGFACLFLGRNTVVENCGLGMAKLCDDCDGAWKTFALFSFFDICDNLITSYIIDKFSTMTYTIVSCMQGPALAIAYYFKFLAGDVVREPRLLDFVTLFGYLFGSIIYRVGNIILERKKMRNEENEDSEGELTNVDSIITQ

PfCRT^Dd2 = PfCRT^Dd2 (Plasmodium falciparum, UniProt Q9N623, A220S/I356T/K76T/M74I/N326S/N75E/Q271E/R371I); experiment: cell-based; details: mean ± SEM, n = 5, SEM
Chain of PfCRT^Dd2 (Q9N623 whole entry A220S/I356T/K76T/M74I/N326S/N75E/Q271E/R371I, canonical isoform): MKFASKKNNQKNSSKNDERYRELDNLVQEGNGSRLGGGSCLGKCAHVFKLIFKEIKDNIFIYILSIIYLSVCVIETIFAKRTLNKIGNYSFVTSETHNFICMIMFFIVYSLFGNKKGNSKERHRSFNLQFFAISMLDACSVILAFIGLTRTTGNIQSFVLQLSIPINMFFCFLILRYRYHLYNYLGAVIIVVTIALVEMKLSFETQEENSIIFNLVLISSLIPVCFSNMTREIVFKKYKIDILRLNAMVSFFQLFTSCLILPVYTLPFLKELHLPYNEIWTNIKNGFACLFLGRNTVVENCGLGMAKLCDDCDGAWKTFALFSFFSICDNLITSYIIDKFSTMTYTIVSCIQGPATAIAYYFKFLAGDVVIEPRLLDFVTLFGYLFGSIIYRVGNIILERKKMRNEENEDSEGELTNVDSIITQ
Experimental: (§1) The characterisation of [^3H]VF-6 transport via 23 different field and laboratory-derived isoforms of PfCRT was undertaken with oocytes two days post-cRNA-injection (Figs. 3a–j, 4; Supplementary Fig. 2). The oocytes were injected with 25 nL of ND96 buffer (pH 5.5) supplemented with [^3H]VF-6 and unlabelled VF-6 to achieve estimated intracellular concentrations of 1.4 and 200 μM, respectively. Ten oocytes that had resealed at the injection site were transferred to a 5 mL polystyrene round bottom tube (In Vitro Technologies) and washed with 3.5 mL of ND96 buffer before being transferred to separate wells of a white 96-well plate (PerkinElmer). This treatment served to establish the amount of radioactivity within the oocytes immediately prior to the commencement of the transport assay. Another 10 resealed oocytes were transferred to a 5 mL tube and washed with 3.5 mL of ND96 buffer. […] The assay was terminated by removing the reaction buffer with a pipette and washing the oocytes twice with 3.5 mL of ice-cold ND96 buffer. Each oocyte was transferred to a separate well of a white 96-well plate. The oocytes were lysed by the addition of 20 μL of 10% (w/v) SDS and overnight incubation at room temperature. The lysed oocyte was then combined with 150 μL of MicroScint-40 microscintillant (PerkinElmer), the plate covered with a TopSeal-A (PerkinElmer), and the radioactivity measured with a MicroBeta^2 microplate liquid scintillation analyser (PerkinElmer). VF-6 transport was calculated by subtracting the amount of radioactivity (measured in counts per minute) present within the oocytes at the end of the incubation from that measured in the oocytes sampled immediately before the commencement of the assay. The pH-dependence of transport (Fig. 3c) was determined by injecting the oocytes with [^3H]VF-6 suspended in 25 nL ND96 buffer adjusted to pH 5.0, 5.5, 6.0 or 7.0, which corresponded to the injection of 2.5–250 fmol of H^+. The dependence of [^3H]VF-6 transport on Na^+ or Cl^− was examined by injecting the oocytes with [^3H]VF-6 suspended in the control ND96 buffer (pH 5.5) or a version of this buffer that lacked either Na^+ or Cl^− (Supplementary Fig. 2). […] The dependence of peptide transport on Ca^2+ was determined by injecting the oocytes with [^3H]VF-6 suspended in ND96 buffers that contained different concentrations of Ca^2+ (0–5 mM; Supplementary Fig. 2). […] The dependence of PfCRT-mediated transport on the membrane potential was examined by using (1) Na^+ ionophore III in conjunction with the Na^+ gradients listed in Supplementary Data 7 and (2) Cl^− ionophore III in conjunction with the Cl^− gradients listed in Supplementary Data 7 to clamp the membrane potential of the oocyte from −80 to +80 mV. […] The kinetic parameters for VF-6 transport via different isoforms of PfCRT (Figs. 3e and 4a) were determined in SigmaPlot Windows Version 11.0 by a least-squares fit of the Michaelis–Menten equation to the data.
(§2) A subset of assays measured the ability of solutes known to interact with PfCRT to either cis-inhibit, trans-inhibit or trans-stimulate [^3H]VF-6 transport. These experiments involved adding these solutes to either the cis- or trans-side of the membrane relative to [^3H]VF-6. […] At least five independent experiments were performed (on different days and using oocytes from different frogs), and within each experiment measurements were made from ten oocytes per treatment.

PfCRT^3D7 = PfCRT^3D7 (Plasmodium falciparum, UniProt Q8IBZ9); experiment: cell-based; details: for IC50: mean ± SEM, n = 5, SEM; for Trans effect on [3H]VF-6 transport via PfCRT (in words): all three PfCRT isoforms (3D7, Ecu1110, Dd2)
Chain of PfCRT^3D7 (Q8IBZ9 59-398): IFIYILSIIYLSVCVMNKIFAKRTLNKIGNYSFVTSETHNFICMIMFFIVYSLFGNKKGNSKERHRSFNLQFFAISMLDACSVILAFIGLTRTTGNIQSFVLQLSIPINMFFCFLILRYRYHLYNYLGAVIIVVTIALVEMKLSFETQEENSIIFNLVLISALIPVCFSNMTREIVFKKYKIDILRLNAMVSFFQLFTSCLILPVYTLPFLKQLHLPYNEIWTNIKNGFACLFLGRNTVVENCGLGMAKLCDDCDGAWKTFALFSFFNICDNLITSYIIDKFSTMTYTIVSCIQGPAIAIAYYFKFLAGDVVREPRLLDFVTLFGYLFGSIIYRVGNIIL
Experimental: as §1, §2

PfCRT^Ecu1110 = PfCRT^Ecu1110 (Plasmodium falciparum, UniProt Q9N623, A220S/I356L/K76T/N326D); experiment: cell-based; details: mean ± SEM, n = 5, SEM
Chain of PfCRT^Ecu1110 (Q9N623 whole entry A220S/I356L/K76T/N326D): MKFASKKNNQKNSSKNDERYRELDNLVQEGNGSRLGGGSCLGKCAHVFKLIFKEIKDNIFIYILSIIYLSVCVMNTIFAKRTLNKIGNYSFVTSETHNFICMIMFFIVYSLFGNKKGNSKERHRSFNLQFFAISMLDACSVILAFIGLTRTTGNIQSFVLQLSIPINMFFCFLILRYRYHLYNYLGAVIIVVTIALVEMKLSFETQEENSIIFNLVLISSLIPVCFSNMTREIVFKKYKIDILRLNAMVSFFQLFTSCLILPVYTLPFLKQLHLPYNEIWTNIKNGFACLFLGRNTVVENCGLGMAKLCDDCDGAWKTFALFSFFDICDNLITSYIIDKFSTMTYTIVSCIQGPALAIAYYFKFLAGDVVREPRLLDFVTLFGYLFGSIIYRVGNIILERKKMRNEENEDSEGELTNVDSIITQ
Experimental: as §1, §2

PfCRT = experiment: Potential co-substrates tested for influx of VF-6 via PfCRT into the oocyte; assay type: cell-based, Plasmodium falciparum; parameters: key: X: Compounds that have been tested as potential co-substrates but are not required for influx of VF-6 via PfCRT into the oocyte
[2] = Cis-inhibition IC50 of [3H]VF-6 transport, PfCRTDd2, drug on same side as [3H]VF-6
[3] = Cis-inhibition IC50 of [3H]VF-6 transport, PfCRTEcu1110, drug on same side as [3H]VF-6

CCN(CC)CCCC(C)Nc1ccnc2cc(Cl)ccc12 (centres unmarked) [CQ, chloroquine, reference compound]
Effect on rate of DV alkalinisation / H+ leak (in words) [1]: increase
IC50 (PfCRT^Dd2; [2]): 53 ± 2.8 µM
IC50 (PfCRT^Dd2; Trans-inhibition IC50 of [3H]VF-6 transport, PfCRTDd2, drug on opposite side to [3H]VF-6): 54 ± 3.6 µM
IC50 (PfCRT^3D7; Cis-inhibition IC50 of [3H]VF-6 transport, PfCRT3D7, drug on same side as [3H]VF-6): 110 ± 5.9 µM
IC50 (PfCRT^3D7; Trans-inhibition IC50 of [3H]VF-6 transport, PfCRT3D7, drug on opposite side to [3H]VF-6): 77 ± 5.2 µM
Extracellular concentration giving modest trans-stimulation of [3H]VF-6 transport (PfCRT^3D7; all three PfCRT isoforms): ≥ 500 µM
IC50 (PfCRT^Ecu1110; [3]): 72 ± 3.1 µM
IC50 (PfCRT^Ecu1110; Trans-inhibition IC50 of [3H]VF-6 transport, PfCRTEcu1110, drug on opposite side to [3H]VF-6): 62 ± 2.6 µM

NC(=O)CC[C@H](N)C(=O)O [L-glutamine]
Tested as potential co-substrate but not required for influx of VF-6 via PfCRT into the oocyte (PfCRT): X

N[C@@H](Cc1c[nH]cn1)C(=O)O [L-histidine]
Effect on rate of DV alkalinisation / H+ leak (in words) [1]: without effect
Tested as potential co-substrate but not required for influx of VF-6 via PfCRT into the oocyte (PfCRT): X

CC[C@H](C)[C@H](N)C(=O)O [L-isoleucine]
Tested as potential co-substrate but not required for influx of VF-6 via PfCRT into the oocyte (PfCRT): X

CC(C)C[C@H](N)C(=O)O [L-leucine]
Tested as potential co-substrate but not required for influx of VF-6 via PfCRT into the oocyte (PfCRT): X

NCCCC[C@H](N)C(=O)O [L-lysine]
Tested as potential co-substrate but not required for influx of VF-6 via PfCRT into the oocyte (PfCRT): X

CSCC[C@H](N)C(=O)O [L-methionine]
Tested as potential co-substrate but not required for influx of VF-6 via PfCRT into the oocyte (PfCRT): X

N[C@@H](Cc1ccccc1)C(=O)O [L-phenylalanine]
Tested as potential co-substrate but not required for influx of VF-6 via PfCRT into the oocyte (PfCRT): X

N[C@@H](CO)C(=O)O [L-serine]
Tested as potential co-substrate but not required for influx of VF-6 via PfCRT into the oocyte (PfCRT): X

C[C@@H](O)[C@H](N)C(=O)O [L-threonine]
Tested as potential co-substrate but not required for influx of VF-6 via PfCRT into the oocyte (PfCRT): X

N[C@@H](Cc1c[nH]c2ccccc12)C(=O)O [L-tryptophan]
Tested as potential co-substrate but not required for influx of VF-6 via PfCRT into the oocyte (PfCRT): X

N[C@@H](Cc1ccc(O)cc1)C(=O)O [L-tyrosine]
Tested as potential co-substrate but not required for influx of VF-6 via PfCRT into the oocyte (PfCRT): X

CC(C)[C@H](N)C(=O)O [L-valine]
Tested as potential co-substrate but not required for influx of VF-6 via PfCRT into the oocyte (PfCRT): X

CC(C)(C)NC(=O)[C@@H]1C[C@@H]2CCCC[C@@H]2CN1C[C@@H](O)[C@H](Cc1ccccc1)NC(=O)[C@H](CC(N)=O)NC(=O)c1ccc2ccccc2n1 [Saquinavir, saquinavir, reference compound]
Maximum rate of peptide mimic-induced DV alkalinization ([1]; mean ± SEM, n = 5, SEM): 0.022 ±0.004 fluorescence ratio/s
Effect on rate of DV alkalinisation / H+ leak (in words) [1]: increased the rate of DV alkalinisation
IC50 (PfCRT^Dd2; [2]): 89 ± 3.8 µM
Trans effect on [3H]VF-6 transport via PfCRT (in words) (PfCRT^3D7): trans-stimulated
Trans effect on [3H]VF-6 transport via PfCRT (in words) (PfCRT^3D7; listed as SQV): Trans-stimulates
IC50 (PfCRT^3D7; drug on same side as [3H]VF-6, read-out: Cis-inhibition IC50 of [3H]VF-6 transport, PfCRT3D7): 50 ± 2.3 µM
IC50 (PfCRT^Ecu1110; [3]): 74 ± 3.9 µM

PVNF [PF-4]
Tested as potential co-substrate but not required for influx of VF-6 via PfCRT into the oocyte (PfCRT): X
